Data: patent publication US12103945B2, “Crystalline form of vascular leakage blocker compound” (Curacle Co., Ltd., priority 2020, dated 2024)

How the values were obtained:
Format in all cases: physicochemical
[1] = Thermal gravimetric analysis (TGA); details: heating from room temperature to 120° C.
Procedure: Samples of compounds (4˜6 mg) were weighed into the pan, and heated under nitrogen purge.
• Ramp rate: 20° C./min over the range 30° C.˜300° C. • Nitrogen purge: 50 mL/min • Samples: About 5 mg

[2] = Dynamic vapor sorption (DVS); details: for Mass change (%) Desorption / Mass change (%) Sorption / Mass change (%) Hysteresis: 25° C.
Procedure: Around 10 mg of samples were used to test its moisture sorption/desorption profiles.
• Temperature: 25° C. • Equilibrium: dm/dt: 0.01%/min • Relative Humidity (RH) measurement stepscope: 0%˜95%˜0% RH • Relative Humidity (RH) measurement step: 5% RH • Samples: 10-20 mg • Hygroscopicity Classification • Hygroscopicity: Water Sorption Criterion • Deliquescent: Sufficient water is absorbed to form a liquid. • Very hygroscopic: W %≥15% • Hygroscopic: W %≥2% • Slightly hygroscopic: W %≥0.2% • Non-hygroscopic: W %<0.2% • 25±1° C., 80±2% RH

[3] = Accelerated stability test (HPLC purity); details: for Purity (%): 40 ± 2° C. & 75 ± 5% RH
Procedure: • Column: Agilent Zorbax Rx C8, 4.6 mm×250 mm, 5.0 μm • Moving phase: 85% acetonitrile • Flow rate: 1.0 mL/rain • Wavelength: 205 nm • Injection volume: 10 λL • Column temperature: 30° C. • Diluent: 100% acetonitrile
In order to confirm the stability of the novel crystalline form according to the present invention, the stability of the crystalline form I prepared in Example 1 was evaluated using a liquid chromatography method under the analysis conditions of <Experimental Methods>6. High performance liquid chromatography (HFLC). The results of the accelerated stability test from 1 month to 6 months in the conditions of 40±2° C. & 75±5 RH are shown in Table 15 below.

With `COC(=O)CCC/C=C(\C)[C@H]1CC[C@H]2[C@@H]3CC=C4C[C@@H](O[C@@H]5C=C[C@H](OC(C)=O)[C@@H](COC(C)=O)O5)CC[C@]4(C)[C@H]3CC[C@]12C` [crystalline form I, (E)-methyl 6-((3S,8S,9S,10R,13S,14S,17R)-3-(((2S,5S,6R)-5-acetoxy-6-(acetoxymethyl)-5,6-dihydro-2H-pyran-2-yl)oxy)-10,13-dimethyl-2,3,4,7,8,9,10,11,12,13,14,15,16,17-tetradecahydro-1H-cyclopenta[a]phenanthrene-17-yl)hept-5-enoate] as the compound, how does the “mass loss (TGA)” value [1] read?
Its value is 0.078%.

And the “Mass change (%) Desorption” value ([2]; Target RH 0.0%)?
The value was −0.1124%.

And the “Mass change (%) Sorption” value ([2]; Target RH 0.0%)?
Its value is 0.0000%.

What about the “Mass change (%) Desorption” value ([2]; Target RH 5.0%) of the same compound?
Its value is −0.1004%.

What about the “Mass change (%) Hysteresis” value ([2]; Target RH 5.0%) of the same compound?
The value was −0.1074%.

What about the “Mass change (%) Sorption” value ([2]; Target RH 5.0%) of the same compound?
Its value is 0.0070%.

And the “Mass change (%) Desorption” value ([2]; Target RH 10.0%)?
The value was −0.0904%.

And the “Mass change (%) Hysteresis” value ([2]; Target RH 10.0%)?
Its value is −0.1034%.

And the “Mass change (%) Sorption” value ([2]; Target RH 10.0%)?
Its value is 0.0131%.

And the “Mass change (%) Desorption” value ([2]; Target RH 15.0%)?
The value was −0.0773%.

What about the “Mass change (%) Hysteresis” value ([2]; Target RH 15.0%) of the same compound?
Its value is −0.0964%.

And the “Mass change (%) Sorption” value ([2]; Target RH 15.0%)?
The value was 0.0191%.

And the “Mass change (%) Desorption” value ([2]; Target RH 20.0%)?
Its value is −0.0673%.

What about the “Mass change (%) Hysteresis” value ([2]; Target RH 20.0%) of the same compound?
Its value is −0.0906%.

And the “Mass change (%) Sorption” value ([2]; Target RH 20.0%)?
The value was 0.0231%.

And the “Mass change (%) Desorption” value ([2]; Target RH 25.0%)?
Its value is −0.0492%.

What about the “Mass change (%) Hysteresis” value ([2]; Target RH 25.0%) of the same compound?
Its value is −0.0803%.

And the “Mass change (%) Sorption” value ([2]; Target RH 25.0%)?
Its value is 0.0311%.

And the “Mass change (%) Desorption” value ([2]; Target RH 30.0%)?
The value was −0.0402%.

And the “Mass change (%) Hysteresis” value ([2]; Target RH 30.0%)?
Its value is −0.0723%.

And the “Mass change (%) Sorption” value ([2]; Target RH 30.0%)?
The value was 0.0321%.

And the “Mass change (%) Desorption” value ([2]; Target RH 35.0%)?
The value was −0.0261%.

And the “Mass change (%) Hysteresis” value ([2]; Target RH 35.0%)?
Its value is −0.0592%.

And the “Mass change (%) Sorption” value ([2]; Target RH 35.0%)?
The value was 0.0331%.

And the “Mass change (%) Desorption” value ([2]; Target RH 40.0%)?
The value was −0.0131%.

And the “Mass change (%) Hysteresis” value ([2]; Target RH 40.0%)?
The value was −0.0582%.

And the “Mass change (%) Sorption” value ([2]; Target RH 40.0%)?
Its value is 0.0452%.

What about the “Mass change (%) Desorption” value ([2]; Target RH 45.0%) of the same compound?
Its value is 0.0000%.

And the “Mass change (%) Hysteresis” value ([2]; Target RH 45.0%)?
The value was −0.0512%.

And the “Mass change (%) Sorption” value ([2]; Target RH 45.0%)?
The value was 0.0512%.

And the “Mass change (%) Desorption” value ([2]; Target RH 50.0%)?
The value was 0.0141%.

What about the “Mass change (%) Hysteresis” value ([2]; Target RH 50.0%) of the same compound?
Its value is −0.0462%.

And the “Mass change (%) Sorption” value ([2]; Target RH 50.0%)?
The value was 0.0602%.

And the “Mass change (%) Desorption” value ([2]; Target RH 55.0%)?
The value was 0.0261%.

And the “Mass change (%) Hysteresis” value ([2]; Target RH 55.0%)?
The value was −0.0381%.

And the “Mass change (%) Sorption” value ([2]; Target RH 55.0%)?
The value was 0.0642%.

And the “Mass change (%) Desorption” value ([2]; Target RH 60.0%)?
Its value is 0.0392%.

What about the “Mass change (%) Hysteresis” value ([2]; Target RH 60.0%) of the same compound?
Its value is −0.0351%.

What about the “Mass change (%) Sorption” value ([2]; Target RH 60.0%) of the same compound?
The value was 0.0743%.

And the “Mass change (%) Desorption” value ([2]; Target RH 65.0%)?
Its value is 0.0522%.

What about the “Mass change (%) Hysteresis” value ([2]; Target RH 65.0%) of the same compound?
Its value is −0.0291%.

What about the “Mass change (%) Sorption” value ([2]; Target RH 65.0%) of the same compound?
The value was 0.0813%.

And the “Mass change (%) Desorption” value ([2]; Target RH 70.0%)?
Its value is 0.0663%.

What about the “Mass change (%) Hysteresis” value ([2]; Target RH 70.0%) of the same compound?
Its value is −0.0231%.

And the “Mass change (%) Sorption” value ([2]; Target RH 70.0%)?
The value was 0.0893%.

What about the “Mass change (%) Desorption” value ([2]; Target RH 75.0%) of the same compound?
Its value is 0.0823%.

And the “Mass change (%) Hysteresis” value ([2]; Target RH 75.0%)?
Its value is −0.0191%.

And the “Mass change (%) Sorption” value ([2]; Target RH 75.0%)?
The value was 0.1014%.

What about the “Mass change (%) Desorption” value ([2]; Target RH 80.0%) of the same compound?
Its value is 0.0964%.

What about the “Mass change (%) Hysteresis” value ([2]; Target RH 80.0%) of the same compound?
The value was −0.0131%.

And the “Mass change (%) Sorption” value ([2]; Target RH 80.0%)?
The value was 0.1094%.

And the “Mass change (%) Desorption” value ([2]; Target RH 85.0%)?
Its value is 0.1114%.

What about the “Mass change (%) Hysteresis” value ([2]; Target RH 85.0%) of the same compound?
The value was −0.0080%.

And the “Mass change (%) Sorption” value ([2]; Target RH 85.0%)?
The value was 0.1195%.

What about the “Mass change (%) Desorption” value ([2]; Target RH 90.0%) of the same compound?
Its value is 0.1325%.

And the “Mass change (%) Hysteresis” value ([2]; Target RH 90.0%)?
Its value is −0.0010%.

What about the “Mass change (%) Sorption” value ([2]; Target RH 90.0%) of the same compound?
Its value is 0.1335%.

And the “Mass change (%) Desorption” value ([2]; Target RH 95.0%)?
Its value is 0.1436%.

And the “Mass change (%) Sorption” value ([2]; Target RH 95.0%)?
Its value is 0.1436%.

What about the Hygroscopicity classification ([2]; 25±1° C., 80±2% RH) of the same compound?
Its Hygroscopicity classification is “non-hygroscopic”.

What about the water sorption ([2]; at 80% RH) of the same compound?
Its water sorption is 0.11%.

And the “Purity (%)” value ([3]; storage time 1 month)?
The value was 99.8%.

And the “Purity (%)” value ([3]; storage time 3 months)?
The value was 99.8%.

And the “Purity (%)” value ([3]; storage time 6 months)?
Its value is 99.8%.

What about the “Purity (%)” value ([3]; storage time Initial) of the same compound?
The value was 99.8%.

And the “Accelerated stability (result in words)” value ([3]; 40±2° C. & 75±5 RH, 1 month to 6 months)?
Its value is “stably maintained for up to 6 months without affecting the purity”.
